Ends that are not written are not given here.
Tested on: Human dermal fibroblasts
Test: SIRCOL collagen assay: soluble collagen released by dermal fibroblasts incubated with peptides
Type: cell-based
Conditions: for Collagen (μg) / Collagen: * = may not be significant, detection limit 2.5 μg; for Increase in collagen release at 48 h v. 24 h / Significant release of collagen at 24 h and 48 h / Decrease in collagen release at 48 h v. 24 h: check mark = yes; for Significant release of collagen at 24 h and 48 h: 25 μg/mL considered significant
Protocol: Several sequences identified in Examples 1 and 2 were synthesized using standard peptide chemistry and assayed for the stimulation of collagen from dermal fibroblasts. The synthesized peptides were amidated at the C-terminus, which rendered the tetrapeptides less susceptible to protease degradation and increased their solubility compared to the free acid forms. Human dermal fibroblasts were incubated in 96-well plates at 37° C. and 5% CO2 for 24 and 48 hours in 150 μL complete cell culture media (Cascade Biologics, Portland, Oreg.; Cat. No. M-106-500), supplemented with Low Serum Growth Supplement (Cascade Biologics, Portland, Oreg.; Cat. No. […] Each well was seeded with 10,000 cells. Following the incubation, 100-μL medium samples were recovered from each well and assayed for collagen production
The assays were performed by Tebu-bio Laboratories (France) using the SIRCOL™ Collagen Assay Kit (Biocolor Assays, UK) following the manufacturer's protocol. The SIRCOL™ Collagen Assay is a quantitative dye-binding method designed for the analysis of soluble collagens released into culture medium by mammalian cells during in vitro culture. The collagen of the tested samples binds to the anionic SIRCOL™ dye. The collagen-dye complexes precipitate out of solution and are pelleted by centrifugation. The recovered collagen-dye pellet was dissolved in an alkaline solution prior to absorbance measurements. Duplicate measurements were taken at the 24 and 48 hour times from two separate samples. The four measurements for each sample were averaged. The absorbance of reagent blanks, collagen standards, and samples were measured at 560 nm. The reagent blank absorbance was subtracted from the absorbance from each sample at 24 and 48 hours.
Two separate data sets were used to generate two collagen standard calibration curves. The first calibration curve was generated for purposes of calculating the quantity of collagen in samples H6 (combination of SEQ ID NOs:1-4), […] (SEQ ID NOs:1-8, respectively) and H15 (combination of SEQ ID NOs:5-8). The second calibration curve was generated for calculating the quantity of collagen in samples H16 (SEQ ID NO:9), H21-23 (SEQ ID NOs:10-12, respectively), H25-26 (SEQ ID NOs:13-14, respectively), or H29-30 (SEQ ID NOs:15-16, respectively), H32 (SEQ ID NO:17), H33 (combination of SEQ ID NOs:9-12), H34 (combination of SEQ ID NOs:11-14), H35 (combination of SEQ ID NOs:13-16), H36 (combination of SEQ ID NOs:1, 6, 5, 8), H37 (SEQ ID NO: 17) and H38 (SEQ ID NO:8) from the absorbance measurements was created by plotting the Abs560nm of the known collagen standards versus the respective concentrations of the collagen standards (in micrograms) each time a series of assays were performed. With respect to each data set, the same calibration curve was used for samples taken at the 24 and 48 hour times (Tables 2A and 2B). Accordingly, different standard curves were prepared immediately prior to performing each series of assays.
A linear regression was performed from plotting the Abs560nm values versus concentrations of the respective collagen standards using MICROSOFT EXCEL™. […] As the results were identical, only the 24-hour time period was used for the second series calibration curves. The formula of the line obtained on assay date 1 and assay date 2 of the second series of samples was y=0.0178x and y=0.0162x, respectively. The peptide LL-37 (SEQ ID NO:18) was used as a positive control as it has been widely reported to have an impact upon wound healing in man (Heilborn et al., The Cathelicidin Anti-Microbial Peptide LL-37 Is Involved In The Re-Epithelialization Of Human Skin Wounds And Is Lacking In Chronic Ulcer Epithelium, J. Invest. Dermato. 120:379-89 (2003). The assay detection limit defined by the manufacturer is 2.5 μg. […]

[1] = 24 hours, peptide 50 μg/mL, 100 μL medium sample
[2] = 48 hours, peptide 50 μg/mL, 100 μL medium sample
[3] = peptide 0.3 μg/mL (per Table 5)
[4] = 24 hours, peptide 0.3 μg/mL, second series
[5] = 48 hours, peptide 0.3 μg/mL, second series
[6] = 24 hours, peptide 50 μg/mL, second series
[7] = 48 hours, peptide 50 μg/mL, second series

Substance | Released collagen (μg/mL) 24 h (peptide 50 μg/mL (per Table 5)) [µg/mL] | Average (A560 nm) (24 hours, peptide 50 μg/mL) | Average minus blank (A560 nm) (24 hours, peptide 50 μg/mL) | Collagen (μg) [1] | Collagen produced (μg/mL) 24 hrs ([Peptide] 50 μg/mL) [µg/mL] | Released collagen (μg/mL) 48 h (peptide 50 μg/mL (per Table 5)) [µg/mL] | Average (A560 nm) (48 hours, peptide 50 μg/mL) | Average minus blank (A560 nm) (48 hours, peptide 50 μg/mL) | Collagen produced (μg/mL) 48 hrs ([Peptide] 50 μg/mL) [µg/mL] | Increase in collagen release at 48 h v. 24 h (peptide 50 μg/mL) | Collagen (μg) [2] | Decrease in collagen release at 48 h v. 24 h (peptide 50 μg/mL) | Average (A560 nm) [6] | Average minus blank (A560 nm) [6] | Average (A560 nm) [7] | Average minus blank (A560 nm) [7] | Collagen (μg) [7] | other results
GAGP (Synthetic Peptide H12) | 2 | 0.08 | 0.00 | 0.2* μg | 2 | 37 | 0.17 | 0.05 | 37 | ✓ |  |  |  |  |  |  |  | collagen production at 48 hours (in words) (48 hours): good results; Collagen [2]: 3.7 µg
GEKG (Synthetic Peptide H14) [H14 = tested at 50 μg/mL, H38 = same peptide tested at 0.3 μg/mL] | 30 | 0.12 | 0.04 |  | 30 | 26 | 0.15 | 0.03 | 26 |  |  |  |  |  |  |  |  | time for which collagen production was substantially maintained: at least 48 hours; collagen stimulation at the lower concentration (in words) (0.3 μg/mL versus 50 μg/mL): not diminished; collagen production compared to KTTKS (24 and 48 hours): stimulated more collagen production than the KTTKS; Released collagen (μg/mL) 24 h [3]: 29 µg/mL; amount of collagen induced compared to LL37 (24 hours): about the same amount of collagen as LL37; Average (A560 nm) [4]: 0.13; Average minus blank (A560 nm) [4]: 0.05; Collagen [4]: 2.9 µg; Collagen [1]: 3.0 µg; Collagen produced (μg/mL) 24 hrs ([Peptide] 0.3 μg/mL): 29 µg/mL; Released collagen (μg/mL) 48 h [3]: 28 µg/mL; Average (A560 nm) [5]: 0.11; Average minus blank (A560 nm) [5]: 0.05; Collagen [5]: 2.8 µg; Collagen [2]: 2.6 µg; Collagen produced (μg/mL) 48 hrs ([Peptide] 0.3 μg/mL): 28 µg/mL; Significant release of collagen at 24 h and 48 h (peptide 0.3 μg/mL): ✓; Significant release of collagen at 24 h and 48 h (peptide 50 μg/mL): ✓; maximal stimulating concentration (collagen production): ≤ 0.3 µg/mL
GFPG (Synthetic Peptide H8) | 15 | 0.10 | 0.02 | 1.5* μg | 15 | 9 | 0.13 | 0.01 | 9 |  | 0.9* μg |  |  |  |  |  |  | 
GPPG (Synthetic Peptide H13) | 18 | 0.10 | 0.02 | 1.8* μg | 18 | 2 | 0.12 | 0.00 | 2 |  | 0.2* μg |  |  |  |  |  |  | 
GSPG (Synthetic Peptide H9) | 35 | 0.13 | 0.05 |  | 35 | 0 | 0.09 | 0.00 | 0 |  | 0.0* μg | ✓ |  |  |  |  |  | Collagen [1]: 3.5 µg
KTTKS [H32, reference compound] |  |  |  |  |  | 12 |  |  | 12 |  |  |  | 0.07 | −0.01 | 0.08 | 0.02 | 1.2* μg | Released collagen (μg/mL) 24 h [3]: 11 µg/mL; Average (A560 nm) [4]: 0.10; Average minus blank (A560 nm) [4]: 0.02; Collagen (μg) [4]: 1.1* μg; Collagen (μg) [6]: −0.5* μg; Collagen produced (μg/mL) 24 hrs ([Peptide] 0.3 μg/mL): 11 µg/mL; Released collagen (μg/mL) 48 h [3]: 22 µg/mL; Average (A560 nm) [5]: 0.10; Average minus blank (A560 nm) [5]: 0.04; Collagen (μg) [5]: 2.2* μg; Collagen produced (μg/mL) 48 hrs ([Peptide] 0.3 μg/mL): 22 µg/mL; Increase in collagen release at 48 h v. 24 h (peptide 0.3 μg/mL): ✓
PEGP (PEGP-NH2) [H7] | 0 | 0.08 | 0.00 | 0.0* μg | 0 | 54 | 0.19 | 0.07 | 54 | ✓ |  |  |  |  |  |  |  | Collagen [2]: 5.4 µg
PEKP (PEKP-NH2) [H16] | 31 |  |  |  | 31 | 3 |  |  | 3 |  |  | ✓ | 0.14 | 0.06 | 0.06 | 0.00 | 0.3* μg | Collagen [6]: 3.1 µg
PGNP (PGNP-NH2) [H30] | 9 |  |  |  | 9 | 20 |  |  | 20 | ✓ |  |  | 0.10 | 0.02 | 0.09 | 0.03 | 2.0* μg | Collagen (μg) [6]: 0.9* μg
PGPR (Synthetic Peptide H10) | 34 | 0.12 | 0.04 |  | 34 | 0 | 0.11 | 0.00 | 0 |  | 0.0* μg | ✓ |  |  |  |  |  | Collagen [1]: 3.4 µg
PGQP (PGQP-NH2) [H22] | 33 |  |  |  | 33 | 21 |  |  | 21 |  |  | ✓ | 0.14 | 0.06 | 0.09 | 0.03 | 2.1* μg | Collagen [6]: 3.3 µg
PGTP (PGTP-NH2) [H23] | 1 |  |  |  | 1 | 17 |  |  | 17 | ✓ |  |  | 0.08 | 0.00 | 0.09 | 0.03 | 1.7* μg | Collagen (μg) [6]: 0.1* μg

From patent publication US10376557B2, “Peptide fragments for inducing synthesis of extracellular matrix proteins” (HELIX BIOMEDIX, INC., priority 2006, dated 2019)
